Measured values as given in patent US11384060B2, “Amide compounds and use thereof” (ALPHALA CO., LTD., priority 2017, dated 2022).
Like-named read-outs stand apart in the source and are kept apart here.

Tests used:
[1] = biological target: T1, glucagon receptor (GCGR) overexpressed CHO-K1 cells or human primary hepatocytes (Homo sapiens, UniProt P47871); assay: Glucagon cAMP inhibition assay (Cisbio cAMP Dynamic 2 HTRF); assay type: cell-based
T1 construct: expressed in transfected cells; host or cells: GCGR overexpressed CHO-K1 cells or human primary hepatocytes (endogenous receptor)
T1 sequence (P47871 26-477): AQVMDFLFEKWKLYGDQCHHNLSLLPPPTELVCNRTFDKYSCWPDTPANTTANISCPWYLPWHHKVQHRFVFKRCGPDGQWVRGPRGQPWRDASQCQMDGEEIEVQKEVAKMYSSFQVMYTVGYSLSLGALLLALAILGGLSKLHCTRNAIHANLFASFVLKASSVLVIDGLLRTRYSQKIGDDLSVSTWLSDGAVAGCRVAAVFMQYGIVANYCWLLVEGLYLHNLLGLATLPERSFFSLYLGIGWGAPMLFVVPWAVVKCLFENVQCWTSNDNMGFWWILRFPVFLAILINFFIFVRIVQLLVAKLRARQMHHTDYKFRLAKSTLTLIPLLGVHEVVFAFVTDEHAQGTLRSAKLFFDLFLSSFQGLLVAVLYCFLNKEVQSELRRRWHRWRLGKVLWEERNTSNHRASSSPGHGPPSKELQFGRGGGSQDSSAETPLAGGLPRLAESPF
Description: Glucagon cAMP Inhibition Assay
Downstream secondary messenger cAMP induced by glucagon was detected by Cisbio cAMP Dynamic 2 kit. Testing compounds were each prepared as a dimethyl sulfoxide (DMSO) solution at the concentration of 10 mM. To evaluate the potency of compounds in inhibiting the cAMP production, glucagon receptor (GCGR) overexpressed CHO-K1 cells or human primary hepatocytes were treated with compounds with a serial dilution. The cells were re-suspended in Hank's Balanced Salt solution (HBSS) contained 0.1% (w/v) bovine serum albumin and 800 nM 3-isobutyl-1-methylxanthine (IBMX) and seeded into low volume, 384 wells white plate. The diluted compounds were then added into the plate for 30 minutes pre-incubation where the final DMSO concentration was 1%. The cells were stimulated with glucagon at the concentration equaled to EC50 (an indicium of the concentration of a drug that gives half-maximal response) for 30 minutes at room temperature. After incubation, lysis buffer contain cAMP antibody and fluorescence acceptor were added into each well for additional 60 minutes incubation. Results were recorded by Molecular Devices SpectraMax Paradigm with the HTRF Detection Cartridges and the IC50 value of each compound in inhibiting the cAMP production was calculated with non-linear regression based on the amount of cAMP production.

glucagon receptor (GCGR) = biological target: T2, glucagon receptor (GCGR) (Homo sapiens, UniProt P47871); assay: I125-glucagon binding assay (competition, GCGR membrane fractions)
T2 construct: expressed in transfected cells; host or cells: CHO-K1 cells overexpressing GCGR (membrane fractions)
T2 sequence (P47871 26-477): as above
Description: I^125-Glucagon Binding Assay
The binding affinity of each compound was evaluated by a competition assay with I^125-glucagon. GCGR membrane fractions were obtained from GCGR overexpressed CHO-K1 cells as a stock of 1 mg/ml concentration. To evaluate the IC50 of compounds binding to GCGR, GCGR membrane fractions were treated with compounds with a serial dilution. The membrane fractions were diluted to 7.5 microgram per well in 70 microliter assay buffer contained 50 mM Tris pH 7.4 and 0.5% (w/v) bovine serum albumin and added into 96 wells plate. The membrane fractions were then mixed with 10 microliter diluted compounds. After 5 minutes pre-incubation, 20 microliter I^125 labeled glucagon (Perkin Elmer) was added into each well at the final concentration of 0.0625 nM. The assay mixtures were incubated at 25° C. for 30 minutes and then transferred onto the Millipore MultiScreen GF/B Plate coated with 0.5% (w/v) Polyethyleneimine. The filter plate was washed with wash buffer contained 50 mM Tris pH 7.4 for 2 times, 300 microliter each time. The residual isotope was detected by Hidex CHAMELEON V micro-beta counter and the IC50 value of each compound binding to GCGR was calculated with non-linear regression.

[2] = inhibition of glucagon (EC50 concentration) induced cAMP production
[3] = competition with I125-glucagon 0.0625 nM, membrane fractions of GCGR overexpressed CHO-K1 cells

SMILES	IC50 cAMP [1] [µM]	IC50 (glucagon receptor (GCGR)) [µM]	IC50 cAMP [1, 2] [µM]	IC50 (glucagon receptor (GCGR); [3]) [µM]	other results
CCOC(=O)CCNC(=O)c1ccc(N[C@H](COc2ccc(-c3nnc(C(C)(C)C)o3)cn2)c2ccc(-c3ccc(Cl)cc3Cl)cc2)cc1 [Compound 15-33, Ethyl (S)-3-(4-((2-((5-(5-(tert-butyl)-1,3,4-oxadiazol-2-yl)pyridin-2-yl)oxy)-1-(2′,4′-dichloro-[1,1′-biphenyl]-4-yl)ethyl)amino)benzamido)propanoate]	>30	> 30			
COc1cnc(-c2ccc([C@@H](COc3ccc(-c4cc5ccccc5o4)cn3)Nc3ccc(C(=O)NCCS(=O)(=O)O)cc3)cc2)nc1 [Compound 15-35, (S)-2-(4-((2-((5-(benzofuran-2-yl)pyridin-2-yl)oxy)-1-(4-(5-methoxypyrimidin-2-yl)phenyl)ethyl)amino)benzamido)ethane-1-sulfonic Acid]	>30	0.584			
CCCC[C@@H](COc1ccc(-c2ccc(C(F)(F)F)cc2)c(F)c1)Nc1ccc(C(=O)NCCC(=O)O)cc1 [Compound 8-18, (S)-3-(4-((1-((2-fluoro-4′-(trifluoromethyl)-[1,1′-biphenyl]-4-yl)oxy)hexan-2-yl)amino)benzamido)propanoic Acid]			0.1535	0.158	
CC(C)(C)[C@@H](COc1ccc(-c2cc3ccccc3o2)c(F)c1)Nc1ccc(C(=O)NCCC(=O)O)cc1 [Compound 8-21, (S)-3-(4-((1-(4-(benzofuran-2-yl)-3-fluorophenoxy)-3,3-dimethylbutan-2-yl)amino)benzamido)propanoic Acid]			0.181	0.111	
CC[C@H](C)[C@@H](COc1nnc(-c2ccc(C(F)(F)F)cc2Cl)o1)Nc1ccc(C(=O)NCCC(=O)O)cc1 [Compound 22-19]	>30	> 30			
Cc1cc(C)c(-c2ccc(NC(=O)[C@H](Cc3ccccc3)Nc3ccc(C(=O)NCCC(=O)O)cc3)cc2)c(C)c1 [Compound 23-3, (S)-3-(4-((1-oxo-3-phenyl-1-((2′,4′,6′-trimethyl-[1,1′-biphenyl]-4-yl)amino)propan-2-yl)amino)benzamido)propanoic Acid]	5.8	0.388			
CCCC[C@@H](COc1ccc(-c2ccc(Cl)cc2Cl)nc1)Nc1ccc(C(=O)NCCC(=O)O)cc1 [Compound 10-7, (S)-3-(4-((1-((6-(2,4-dichlorophenyl)pyridin-3-yl)oxy)hexan-2-yl)amino)benzamido)propanoic Acid]			0.732	0.319	
CCOC(=O)CCNC(=O)c1ccc(N[C@@H](Cc2ccc3ccccc3c2)C(=O)Nc2ccc(-c3cc4ccccc4o3)cc2)cc1 [Compound 23-21, Ethyl (S)-3-(4-((1-((4-(benzofuran-2-yl)phenyl)amino)-3-(naphthalen-2-yl)-1-oxopropan-2-yl)amino)benzamido)propanoate]					IC50 cAMP ([1]; uM): >10 µM; IC50 (glucagon receptor (GCGR); uM): > 10 µM
CCCC[C@@H](COc1ccc(-c2ccc(C(F)(F)F)cc2)cc1)Nc1ccc(C(=O)NCc2nnn[nH]2)cc1 [Compound 1-16, (S)—N-((1H-tetrazol-5-yl)methyl)-4-((1-((4′-(trifluoromethyl)-[1,1′-biphenyl]-4-yl)oxy)hexan-2-yl)amino)benzamide]			0.9488	0.052	
CCOC(=O)CCNC(=O)c1ccc(N[C@H](C(=O)Nc2ccc3cc(OC)ccc3c2)[C@@H](C)CC)cc1 [Compound 24-7, Ethyl 3-(4-(((2S,3S)-1-((6-methoxynaphthalen-2-yl)amino)-3-methyl-1-oxopentan-2-yl)amino)benzamido)propanoate]	0.217	11.4			
COC(=O)CCNC(=O)c1ccc(N[C@@H](CC(C)C)C(=O)Nc2ccc(-c3cc4ccccc4[nH]3)cc2)cc1 [Compound 23-28, Methyl (S)-3-(4-((1-((4-(1H-indol-2-yl)phenyl)amino)-4-methyl-1-oxopentan-2-yl)amino)benzamido)propanoate]	0.179	6.94			
O=C(O)CCNC(=O)c1ccc(N[C@H](COc2ccc(-c3cc4ccccc4o3)cn2)c2ccc(-c3ccc(C(F)(F)F)cc3)cc2)cc1 [Compound 15-29, (S)-3-(4-((2-((5-(benzofuran-2-yl)pyridin-2-yl)oxy)-1-(4′-(trifluoromethyl)-[1,1′-biphenyl]-4-yl)ethyl)amino)benzamido)propanoic Acid]	0.107	0.02			
CC(C)[C@@H](COc1ccc(-c2cn3ccccc3n2)cc1)Nc1ccc(C(=O)NCCC(=O)O)cc1 [Compound 1-39, (S)-3-(4-((1-(4-(imidazo[1,2-a]pyridin-2-yl)phenoxy)-3-methylbutan-2-yl)amino)benzamido)propanoic Acid]			17.895	3.81	
CC[C@H](C)[C@@H](COc1cc(Cl)c(-c2ccc(C(F)(F)F)cc2F)cc1Cl)Nc1ccc(C(=O)NCCC(=O)O)cc1 [Compound 3-21]			0.653	0.295	
CCCC[C@@H](COc1ccc(-c2ccc(Cl)cc2Cl)cn1)Nc1ccc(C(=O)NCCC(=O)O)cc1 [Compound 15-24, (S)-3-(4-((1-((5-(2,4-dichlorophenyl)pyridin-2-yl)oxy)hexan-2-yl)amino)benzamido)propanoic Acid]	0.2939	0.301			
CC[C@H](C)[C@@H](COc1ccc(-c2ccc(F)cc2F)cn1)Nc1ccc(C(=O)NCCC(=O)O)cc1 [Compound 15-20, 3-(4-(((2S,3S)-1-((5-(2,4-difluorophenyl)pyridin-2-yl)oxy)-3-methylpentan-2-yl)amino)benzamido)propanoic Acid]	1.255	0.382			
CCCCC[C@@H](Cc1ccc(-c2ccc(OC(F)(F)F)cc2)cc1)Nc1ccc(C(=O)NCCC(=O)O)cc1 [Compound 19-9, (S)-3-(4-((1-(4′-(trifluoromethoxy)-[1,1′-biphenyl]-4-yl)heptan-2-yl)amino)benzamido)propanoic Acid]	0.0768	0.151			
CC(C)COC[C@H](Cc1ccc(-c2ccc(OC(F)(F)F)cc2)cc1)Nc1ccc(C(=O)NCCC(=O)O)cc1 [Compound 19-33, (S)-3-(4-((1-isobutoxy-3-(4′-(trifluoromethoxy)-[1,1′-biphenyl]-4-yl)propan-2-yl)amino)benzamido)propanoic Acid]	0.472	0.284			
CCC(C)[C@@H](COc1cnc(-c2ccc(Cl)cc2Cl)nc1)Nc1ccc(C(=O)NCCC(=O)O)cc1 (stereo partly drawn) [Compound 12-10, 3-(4-(((2S)-1-((2-(2,4-dichlorophenyl)pyrimidin-5-yl)oxy)-3-methylpentan-2-yl)amino)benzamido)propanoic Acid]			0.89	0.337	
CC(C)(C)c1ccc(-c2ccc(C[C@@H](Nc3ccc(C(=O)NCCC(=O)O)cc3)C(=O)Nc3ccc(OC(F)(F)F)cc3)cc2)cc1 [Compound 24-26, (R)-3-(4-((3-(4′-(tat-butyl)-[1,1′-biphenyl]-4-yl)-1-oxo-1-((4-(trifluoromethoxy)phenyl)amino)propan-2-yl)amino)benzamido)propanoic Acid]	0.8313	0.0457			
CC(C)(C)[C@@H](COc1ccc(-c2ccc(C(F)(F)F)cc2Cl)cc1)Nc1ccc(C(=O)NCCC(=O)O)cc1 [Compound 1-42, (S)-3-(4-((1-((2′-chloro-4′-(trifluoromethyl)-[1,1′-biphenyl]-4-yl)oxy)-3,3-dimethylbutan-2-yl)amino)benzamido)propanoic aid]			0.298	0.234	
